The record followed here is patent publication US5486511A, “4-amino-17β-(cyclopropyloxy)androst-4-en-3-one, 4-amino-17β-(cyclopropylamino)androst-4-en-3-one and related compounds as C17-20 lyase and 5α-reductase” (Merrell Dow Pharmaceuticals Inc., priority 1994, dated 1996).

For this assay, the target named is T1, cynomolgus monkey 5α-reductase (Macaca fascicularis, UniProt Q28892).
T1 construct: microsomes were isolated from cynomolgus monkey prostate tissue; from tissue; host or cells: cynomolgus monkey prostate microsomes
T1 sequence (Q28892 1-254): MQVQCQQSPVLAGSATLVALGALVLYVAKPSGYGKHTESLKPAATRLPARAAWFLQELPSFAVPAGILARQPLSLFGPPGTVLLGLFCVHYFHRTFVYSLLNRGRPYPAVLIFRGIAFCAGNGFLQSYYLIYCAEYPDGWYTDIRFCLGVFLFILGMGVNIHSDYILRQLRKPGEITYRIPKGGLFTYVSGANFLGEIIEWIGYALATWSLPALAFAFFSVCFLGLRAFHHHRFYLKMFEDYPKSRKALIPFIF
As to the kind of experiment: Inhibition of cynomolgus monkey prostatic 5α-reductase (prostate microsomes). The class given is biochemical. Particulars: for IC50: testosterone at Km level. As for the experimental part: The activity of the present compounds as inhibitors of steroid 5α-reductase was determined using microsomal preparations of the 5α-reductase enzyme from laboratory prostate tissue. Specifically, microsomes were isolated from cynomolgus monkey prostate tissue. Protein concentration of the microsomal preparations was determined prior to use of the samples. Individual assays of cynomolgus monkey prostatic 5α-reductase activity contained 0.1M potassium phosphate-sodium citrate buffer (K-Na buffer, 1:1), pH 5.6, 0.1% bovine serum albumin (w/v), 1.0 mM sodium EDTA, 7 to 96 μg of microsomal protein, 1.0 mM NADPH, 5.0 mM glucose-6-phosphate, 1 IU/mL glucose-6 -phosphate dehydrogenase, [1,2-^3 H]-testosterone (0.15 μCi), unlabeled testosterone to yield the desired concentration of substrate, and inhibitor which was dissolved in dimethyl sulfoxide (DMSO) then diluted in K-Na buffer to yield a final assay concentration of 0.1% (v/v) DMSO. The same buffer and DMSO without inhibitor were used in control assays. Background radioactivity was determined from assays containing all components except enzyme. Assays were performed in duplicate. The reaction was initiated by the addition of testosterone and incubated for 20 minutes at 25° C. in a Dubnoff® shaker incubator. Compound to be tested for inhibition was added simultaneously with testosterone. The total volume of the assay was 100 μL.
The 5α-reductase reactions were terminated by the addition of 5 mL chloroform-methanol (2:1) and 0.9 mL water. The carrier steroids were added in the form of 2.5 μg each of testosterone, dihydrotestosterone, and 3,17-androstanediol. […]

For orientation: IC50 means the midpoint of a concentration-inhibition curve. For `C[C@]12CC[C@H]3[C@@H](C=CC4=C(N)C(=O)CC[C@@]43C)[C@@H]1CC[C@@H]2OC1CC1` [Compound 1, 4-Amino-17β-(cyclopropyloxy)androsta-4,6-dien-3-one], the IC50 came out at 2.8 nM.

A word on the Ki: it is the dissociation constant of the complex between target and ligand, obtained from inhibition or displacement. `C[C@]12CC[C@H]3[C@@H](CCC4=C(N)C(=O)CC[C@@]43C)[C@@H]1CC[C@@H]2OC1CC1` [Compound 2, 4-Amino-17β-(cyclopropyloxy)androst-4-en-3-one]: the IC50 turned out to be 7.4 nM. The compound also displayed an inhibition constant Ki (testosterone 0.5 Km to 8 Km) of 7.8 ± 0.7 nM.
